Experimental data taken from the NIST ThermoML archive (doi:10.1016/j.fluid.2016.02.009).
± gives the expanded uncertainty stated by the source.

Conditions: Liquid, Vibrating tube method

CC(C)CCOCCC(C)C [di-(3-methylbutyl) ether]
mass density (283.15 K, 100 kPa): 782.76 ± 0.3 kg/m3
mass density (283.15 K, 5000 kPa): 786.88 ± 0.32 kg/m3
mass density (283.15 K, 10000 kPa): 790.71 ± 0.35 kg/m3
mass density (283.15 K, 15000 kPa): 794.36 ± 0.38 kg/m3
mass density (283.15 K, 20000 kPa): 797.85 ± 0.41 kg/m3
mass density (283.15 K, 25000 kPa): 801.22 ± 0.44 kg/m3
mass density (283.15 K, 30000 kPa): 804.45 ± 0.47 kg/m3
mass density (283.15 K, 35000 kPa): 807.58 ± 0.5 kg/m3
mass density (283.15 K, 40000 kPa): 810.61 ± 0.53 kg/m3
mass density (283.15 K, 45000 kPa): 813.52 ± 0.56 kg/m3
mass density (283.15 K, 50000 kPa): 816.37 ± 0.59 kg/m3
mass density (283.15 K, 55000 kPa): 819.14 ± 0.62 kg/m3
mass density (283.15 K, 60000 kPa): 821.82 ± 0.65 kg/m3
mass density (283.15 K, 65000 kPa): 824.44 ± 0.68 kg/m3
mass density (288.15 K, 100 kPa): 778.71 ± 0.3 kg/m3
mass density (288.15 K, 5000 kPa): 782.95 ± 0.32 kg/m3
mass density (288.15 K, 10000 kPa): 786.89 ± 0.35 kg/m3
mass density (288.15 K, 15000 kPa): 790.64 ± 0.38 kg/m3
mass density (288.15 K, 20000 kPa): 794.22 ± 0.41 kg/m3
mass density (288.15 K, 25000 kPa): 797.65 ± 0.44 kg/m3
mass density (288.15 K, 30000 kPa): 800.95 ± 0.47 kg/m3
mass density (288.15 K, 35000 kPa): 804.15 ± 0.5 kg/m3
mass density (288.15 K, 40000 kPa): 807.23 ± 0.53 kg/m3
mass density (288.15 K, 45000 kPa): 810.19 ± 0.57 kg/m3
mass density (288.15 K, 50000 kPa): 813.09 ± 0.6 kg/m3
mass density (288.15 K, 55000 kPa): 815.91 ± 0.63 kg/m3
mass density (288.15 K, 60000 kPa): 818.64 ± 0.66 kg/m3
mass density (288.15 K, 65000 kPa): 821.33 ± 0.68 kg/m3
mass density (293.15 K, 100 kPa): 774.66 ± 0.3 kg/m3
mass density (293.15 K, 5000 kPa): 779.03 ± 0.32 kg/m3
mass density (293.15 K, 10000 kPa): 783.04 ± 0.35 kg/m3
mass density (293.15 K, 15000 kPa): 786.89 ± 0.38 kg/m3
mass density (293.15 K, 20000 kPa): 790.55 ± 0.41 kg/m3
mass density (293.15 K, 25000 kPa): 794.08 ± 0.44 kg/m3
mass density (293.15 K, 30000 kPa): 797.46 ± 0.47 kg/m3
mass density (293.15 K, 35000 kPa): 800.71 ± 0.51 kg/m3
mass density (293.15 K, 40000 kPa): 803.86 ± 0.54 kg/m3
mass density (293.15 K, 45000 kPa): 806.9 ± 0.57 kg/m3
mass density (293.15 K, 50000 kPa): 809.84 ± 0.6 kg/m3
mass density (293.15 K, 55000 kPa): 812.71 ± 0.63 kg/m3
mass density (293.15 K, 60000 kPa): 815.48 ± 0.66 kg/m3
mass density (293.15 K, 65000 kPa): 818.18 ± 0.69 kg/m3
mass density (298.15 K, 100 kPa): 770.6 ± 0.3 kg/m3
mass density (298.15 K, 5000 kPa): 775.09 ± 0.33 kg/m3
mass density (298.15 K, 10000 kPa): 779.24 ± 0.36 kg/m3
mass density (298.15 K, 15000 kPa): 783.18 ± 0.39 kg/m3
mass density (298.15 K, 20000 kPa): 786.94 ± 0.42 kg/m3
mass density (298.15 K, 25000 kPa): 790.54 ± 0.45 kg/m3
mass density (298.15 K, 30000 kPa): 793.99 ± 0.48 kg/m3
mass density (298.15 K, 35000 kPa): 797.31 ± 0.51 kg/m3
mass density (298.15 K, 40000 kPa): 800.51 ± 0.54 kg/m3
mass density (298.15 K, 45000 kPa): 803.61 ± 0.58 kg/m3
mass density (298.15 K, 50000 kPa): 806.62 ± 0.61 kg/m3
mass density (298.15 K, 55000 kPa): 809.51 ± 0.64 kg/m3
mass density (298.15 K, 60000 kPa): 812.33 ± 0.67 kg/m3
mass density (298.15 K, 65000 kPa): 815.07 ± 0.7 kg/m3
mass density (303.15 K, 100 kPa): 766.54 ± 0.3 kg/m3
mass density (303.15 K, 5000 kPa): 771.15 ± 0.33 kg/m3
mass density (303.15 K, 10000 kPa): 775.41 ± 0.36 kg/m3
mass density (303.15 K, 15000 kPa): 779.46 ± 0.39 kg/m3
mass density (303.15 K, 20000 kPa): 783.3 ± 0.42 kg/m3
mass density (303.15 K, 25000 kPa): 786.98 ± 0.45 kg/m3
mass density (303.15 K, 30000 kPa): 790.53 ± 0.48 kg/m3
mass density (303.15 K, 35000 kPa): 793.91 ± 0.51 kg/m3
mass density (303.15 K, 40000 kPa): 797.19 ± 0.55 kg/m3
mass density (303.15 K, 45000 kPa): 800.34 ± 0.58 kg/m3
mass density (303.15 K, 50000 kPa): 803.4 ± 0.62 kg/m3
mass density (303.15 K, 55000 kPa): 806.36 ± 0.65 kg/m3
mass density (303.15 K, 60000 kPa): 809.23 ± 0.68 kg/m3
mass density (303.15 K, 65000 kPa): 812.01 ± 0.71 kg/m3
mass density (308.15 K, 100 kPa): 762.46 ± 0.3 kg/m3
mass density (308.15 K, 5000 kPa): 767.21 ± 0.33 kg/m3
mass density (308.15 K, 10000 kPa): 771.57 ± 0.36 kg/m3
mass density (308.15 K, 15000 kPa): 775.74 ± 0.39 kg/m3
mass density (308.15 K, 20000 kPa): 779.67 ± 0.42 kg/m3
mass density (308.15 K, 25000 kPa): 783.45 ± 0.45 kg/m3
mass density (308.15 K, 30000 kPa): 787.05 ± 0.48 kg/m3
mass density (308.15 K, 35000 kPa): 790.52 ± 0.52 kg/m3
mass density (308.15 K, 40000 kPa): 793.86 ± 0.55 kg/m3
mass density (308.15 K, 45000 kPa): 797.07 ± 0.59 kg/m3
mass density (308.15 K, 50000 kPa): 800.19 ± 0.62 kg/m3
mass density (308.15 K, 55000 kPa): 803.2 ± 0.65 kg/m3
mass density (308.15 K, 60000 kPa): 806.11 ± 0.69 kg/m3
mass density (308.15 K, 65000 kPa): 808.94 ± 0.72 kg/m3
mass density (313.15 K, 100 kPa): 758.37 ± 0.3 kg/m3
mass density (313.15 K, 5000 kPa): 763.24 ± 0.33 kg/m3
mass density (313.15 K, 10000 kPa): 767.74 ± 0.36 kg/m3
mass density (313.15 K, 15000 kPa): 772.01 ± 0.39 kg/m3
mass density (313.15 K, 20000 kPa): 776.05 ± 0.42 kg/m3
mass density (313.15 K, 25000 kPa): 779.9 ± 0.46 kg/m3
mass density (313.15 K, 30000 kPa): 783.59 ± 0.49 kg/m3
mass density (313.15 K, 35000 kPa): 787.12 ± 0.52 kg/m3
mass density (313.15 K, 40000 kPa): 790.53 ± 0.56 kg/m3
mass density (313.15 K, 45000 kPa): 793.81 ± 0.59 kg/m3
mass density (313.15 K, 50000 kPa): 796.97 ± 0.63 kg/m3
mass density (313.15 K, 55000 kPa): 800.03 ± 0.66 kg/m3
mass density (313.15 K, 60000 kPa): 803 ± 0.69 kg/m3
mass density (313.15 K, 65000 kPa): 805.88 ± 0.72 kg/m3
mass density (318.15 K, 100 kPa): 754.27 ± 0.3 kg/m3
mass density (318.15 K, 5000 kPa): 759.27 ± 0.33 kg/m3
mass density (318.15 K, 10000 kPa): 763.91 ± 0.36 kg/m3
mass density (318.15 K, 15000 kPa): 768.28 ± 0.39 kg/m3
mass density (318.15 K, 20000 kPa): 772.42 ± 0.43 kg/m3
mass density (318.15 K, 25000 kPa): 776.38 ± 0.46 kg/m3
mass density (318.15 K, 30000 kPa): 780.14 ± 0.49 kg/m3
mass density (318.15 K, 35000 kPa): 783.75 ± 0.53 kg/m3
mass density (318.15 K, 40000 kPa): 787.22 ± 0.57 kg/m3
mass density (318.15 K, 45000 kPa): 790.57 ± 0.6 kg/m3
mass density (318.15 K, 50000 kPa): 793.81 ± 0.63 kg/m3
mass density (318.15 K, 55000 kPa): 796.91 ± 0.67 kg/m3
mass density (318.15 K, 60000 kPa): 799.93 ± 0.7 kg/m3
mass density (318.15 K, 65000 kPa): 802.85 ± 0.73 kg/m3
mass density (323.15 K, 100 kPa): 750.16 ± 0.3 kg/m3
mass density (323.15 K, 5000 kPa): 755.32 ± 0.33 kg/m3
mass density (323.15 K, 10000 kPa): 760.1 ± 0.36 kg/m3
mass density (323.15 K, 15000 kPa): 764.59 ± 0.4 kg/m3
mass density (323.15 K, 20000 kPa): 768.84 ± 0.43 kg/m3
mass density (323.15 K, 25000 kPa): 772.87 ± 0.46 kg/m3
mass density (323.15 K, 30000 kPa): 776.74 ± 0.5 kg/m3
mass density (323.15 K, 35000 kPa): 780.43 ± 0.53 kg/m3
mass density (323.15 K, 40000 kPa): 783.97 ± 0.57 kg/m3
mass density (323.15 K, 45000 kPa): 787.37 ± 0.61 kg/m3
mass density (323.15 K, 50000 kPa): 790.66 ± 0.64 kg/m3
mass density (323.15 K, 55000 kPa): 793.83 ± 0.67 kg/m3
mass density (323.15 K, 60000 kPa): 796.89 ± 0.71 kg/m3
mass density (323.15 K, 65000 kPa): 799.86 ± 0.74 kg/m3
mass density (328.15 K, 100 kPa): 746.03 ± 0.3 kg/m3
mass density (328.15 K, 5000 kPa): 751.35 ± 0.33 kg/m3
mass density (328.15 K, 10000 kPa): 756.23 ± 0.36 kg/m3
mass density (328.15 K, 15000 kPa): 760.85 ± 0.4 kg/m3
mass density (328.15 K, 20000 kPa): 765.22 ± 0.43 kg/m3
mass density (328.15 K, 25000 kPa): 769.33 ± 0.47 kg/m3
mass density (328.15 K, 30000 kPa): 773.28 ± 0.5 kg/m3
mass density (328.15 K, 35000 kPa): 777.06 ± 0.54 kg/m3
mass density (328.15 K, 40000 kPa): 780.66 ± 0.58 kg/m3
mass density (328.15 K, 45000 kPa): 784.15 ± 0.61 kg/m3
mass density (328.15 K, 50000 kPa): 787.49 ± 0.65 kg/m3
mass density (328.15 K, 55000 kPa): 790.7 ± 0.68 kg/m3
mass density (328.15 K, 60000 kPa): 793.83 ± 0.71 kg/m3
mass density (328.15 K, 65000 kPa): 796.84 ± 0.75 kg/m3
mass density (333.15 K, 100 kPa): 741.88 ± 0.3 kg/m3
mass density (333.15 K, 5000 kPa): 747.34 ± 0.33 kg/m3
mass density (333.15 K, 10000 kPa): 752.39 ± 0.37 kg/m3
mass density (333.15 K, 15000 kPa): 757.12 ± 0.4 kg/m3
mass density (333.15 K, 20000 kPa): 761.58 ± 0.43 kg/m3
mass density (333.15 K, 25000 kPa): 765.79 ± 0.47 kg/m3
mass density (333.15 K, 30000 kPa): 769.84 ± 0.5 kg/m3
mass density (333.15 K, 35000 kPa): 773.7 ± 0.54 kg/m3
mass density (333.15 K, 40000 kPa): 777.39 ± 0.58 kg/m3
mass density (333.15 K, 45000 kPa): 780.93 ± 0.62 kg/m3
mass density (333.15 K, 50000 kPa): 784.33 ± 0.65 kg/m3
mass density (333.15 K, 55000 kPa): 787.59 ± 0.69 kg/m3
mass density (333.15 K, 60000 kPa): 790.76 ± 0.72 kg/m3
mass density (333.15 K, 65000 kPa): 793.83 ± 0.75 kg/m3
